The kinase profiling compilation of Christmann-Franck et al. (2016)

Columns and labels:
Experiment in all cases: radiometric filter-binding kinase assay, Kinase HotSpot
Conditions in all cases: compound 0.5 µM; ATP 10 µM
MAP3K5 (human) = MAP3K5 (human) (UniProt Q99683)
JAK3 JH1 JH2 (human) = JAK3 JH1 JH2 (human) (UniProt P52333)
CDK9 CCNK (human) = CDK9 CCNK (human) (UniProt O75909+P50750)
HCK (human) = HCK (human) (UniProt P08631)
TXK (human) = TXK (human) (UniProt P42681)
MARK3 (human) = MARK3 (human) (UniProt P27448)
FYN (human) = FYN (human) (UniProt P06241)
TNK2 (human) = TNK2 (human) (UniProt Q07912)
IKBKE (human) = IKBKE (human) (UniProt Q14164)
PAK1 (human) = PAK1 (human) (UniProt Q13153)
Sequence of PAK1 (human) (Q13153 whole entry, looked up): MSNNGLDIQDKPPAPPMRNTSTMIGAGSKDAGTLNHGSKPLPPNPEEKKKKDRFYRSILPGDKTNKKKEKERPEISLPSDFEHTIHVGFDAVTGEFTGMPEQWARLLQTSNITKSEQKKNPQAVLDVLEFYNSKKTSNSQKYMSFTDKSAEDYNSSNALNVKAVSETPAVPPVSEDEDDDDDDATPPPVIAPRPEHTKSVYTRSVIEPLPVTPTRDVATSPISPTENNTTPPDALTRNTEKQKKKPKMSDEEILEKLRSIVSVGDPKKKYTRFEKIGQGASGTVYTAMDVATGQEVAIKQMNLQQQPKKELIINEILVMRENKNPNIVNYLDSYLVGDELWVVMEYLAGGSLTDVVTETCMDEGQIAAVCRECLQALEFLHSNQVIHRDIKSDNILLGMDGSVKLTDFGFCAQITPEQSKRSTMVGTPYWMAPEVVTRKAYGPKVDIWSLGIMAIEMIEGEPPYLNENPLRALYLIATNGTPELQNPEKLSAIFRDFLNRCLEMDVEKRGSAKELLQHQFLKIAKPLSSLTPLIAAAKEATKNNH

STK33 (human) = STK33 (human) (UniProt Q9BYT3)
Sequence of STK33 (human) (Q9BYT3 whole entry, looked up): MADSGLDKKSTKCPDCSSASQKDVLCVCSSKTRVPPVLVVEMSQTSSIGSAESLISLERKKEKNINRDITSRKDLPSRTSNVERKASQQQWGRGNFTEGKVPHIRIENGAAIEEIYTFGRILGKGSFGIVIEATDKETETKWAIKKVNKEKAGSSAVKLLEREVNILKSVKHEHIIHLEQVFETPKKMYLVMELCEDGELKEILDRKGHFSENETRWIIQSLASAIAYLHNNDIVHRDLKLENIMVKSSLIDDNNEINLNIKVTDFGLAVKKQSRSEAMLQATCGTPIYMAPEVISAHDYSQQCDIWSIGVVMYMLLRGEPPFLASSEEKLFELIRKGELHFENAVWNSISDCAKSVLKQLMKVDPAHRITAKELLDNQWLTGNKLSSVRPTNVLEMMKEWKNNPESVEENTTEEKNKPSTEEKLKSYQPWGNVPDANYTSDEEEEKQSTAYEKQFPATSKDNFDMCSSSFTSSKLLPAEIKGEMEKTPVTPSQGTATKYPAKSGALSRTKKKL

RPS6KA2 KD1 KD2 (human) = RPS6KA2 KD1 KD2 (human) (UniProt Q15349)
PBK (human) = PBK (human) (UniProt Q96KB5)
PRKG2 (human) = PRKG2 (human) (UniProt Q13237)
Sequence of PRKG2 (human) (Q13237 whole entry, looked up): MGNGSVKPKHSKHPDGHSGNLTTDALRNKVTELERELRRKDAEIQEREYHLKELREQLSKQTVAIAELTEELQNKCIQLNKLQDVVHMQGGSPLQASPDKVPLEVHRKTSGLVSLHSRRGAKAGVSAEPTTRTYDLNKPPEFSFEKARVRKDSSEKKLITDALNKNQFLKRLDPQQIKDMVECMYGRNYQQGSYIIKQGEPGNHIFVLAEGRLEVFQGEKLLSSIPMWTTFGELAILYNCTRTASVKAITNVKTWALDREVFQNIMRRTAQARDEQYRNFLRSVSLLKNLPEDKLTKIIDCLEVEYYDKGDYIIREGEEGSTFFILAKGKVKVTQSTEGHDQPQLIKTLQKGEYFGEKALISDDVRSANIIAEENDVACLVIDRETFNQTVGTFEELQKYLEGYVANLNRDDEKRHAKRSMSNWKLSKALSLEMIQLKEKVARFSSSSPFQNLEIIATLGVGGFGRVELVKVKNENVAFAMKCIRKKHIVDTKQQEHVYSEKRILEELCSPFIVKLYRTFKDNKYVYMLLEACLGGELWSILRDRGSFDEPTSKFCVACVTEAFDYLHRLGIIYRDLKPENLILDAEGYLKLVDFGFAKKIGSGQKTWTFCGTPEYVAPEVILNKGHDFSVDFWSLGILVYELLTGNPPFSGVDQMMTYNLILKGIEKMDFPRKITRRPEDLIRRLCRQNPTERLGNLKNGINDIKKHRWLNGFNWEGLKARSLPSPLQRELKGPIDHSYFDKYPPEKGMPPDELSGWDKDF

PLK2 (human) = PLK2 (human) (UniProt Q9NYY3)
Sequence of PLK2 (human) (Q9NYY3 whole entry, looked up): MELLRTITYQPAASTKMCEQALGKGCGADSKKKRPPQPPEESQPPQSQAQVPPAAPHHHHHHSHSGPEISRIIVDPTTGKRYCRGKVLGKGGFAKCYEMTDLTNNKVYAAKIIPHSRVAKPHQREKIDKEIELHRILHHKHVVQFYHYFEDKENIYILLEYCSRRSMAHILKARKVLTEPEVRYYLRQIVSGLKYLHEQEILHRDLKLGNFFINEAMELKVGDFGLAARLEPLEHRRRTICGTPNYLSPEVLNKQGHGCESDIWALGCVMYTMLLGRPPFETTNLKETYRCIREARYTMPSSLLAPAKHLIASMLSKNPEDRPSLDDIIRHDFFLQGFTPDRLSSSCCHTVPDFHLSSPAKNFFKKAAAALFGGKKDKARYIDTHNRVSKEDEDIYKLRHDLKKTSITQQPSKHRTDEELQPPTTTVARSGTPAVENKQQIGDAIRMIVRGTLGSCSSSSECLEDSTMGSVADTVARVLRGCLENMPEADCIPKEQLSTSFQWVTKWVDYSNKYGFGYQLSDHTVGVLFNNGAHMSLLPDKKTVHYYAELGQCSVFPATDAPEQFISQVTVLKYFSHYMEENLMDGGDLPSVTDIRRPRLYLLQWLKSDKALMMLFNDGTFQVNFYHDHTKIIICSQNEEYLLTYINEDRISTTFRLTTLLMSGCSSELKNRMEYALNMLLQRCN

MAPKAPK2 (human) = MAPKAPK2 (human) (UniProt P49137)
TGFBR1 (human) = TGFBR1 (human) (UniProt P36897)
STK11 (human) = STK11 (human) (UniProt Q15831)
CDK9 CCNT1 (human) = CDK9 CCNT1 (human) (UniProt P50750+O60563)
PRKCE (human) = PRKCE (human) (UniProt Q02156)
AXL (human) = AXL (human) (UniProt P30530)
CDK5 CDK5R1 p35 (human) = CDK5 CDK5R1 p35 (human) (UniProt Q00535+Q15078)
CSNK1G1 (human) = CSNK1G1 (human) (UniProt Q9HCP0)
TEK (human) = TEK (human) (UniProt Q02763)
INSR (human) = INSR (human) (UniProt P06213)
IGF1R (human) = IGF1R (human) (UniProt P08069)
PAK3 (human) = PAK3 (human) (UniProt O75914)
SRPK2 (human) = SRPK2 (human) (UniProt P78362)
NEK7 (human) = NEK7 (human) (UniProt Q8TDX7)
AURKB (human) = AURKB (human) (UniProt Q96GD4)
CLK1 (human) = CLK1 (human) (UniProt P49759)
MAP4K5 (human) = MAP4K5 (human) (UniProt Q9Y4K4)
ACVR1B (human) = ACVR1B (human) (UniProt P36896)
Sequence of ACVR1B (human) (P36896 whole entry, looked up): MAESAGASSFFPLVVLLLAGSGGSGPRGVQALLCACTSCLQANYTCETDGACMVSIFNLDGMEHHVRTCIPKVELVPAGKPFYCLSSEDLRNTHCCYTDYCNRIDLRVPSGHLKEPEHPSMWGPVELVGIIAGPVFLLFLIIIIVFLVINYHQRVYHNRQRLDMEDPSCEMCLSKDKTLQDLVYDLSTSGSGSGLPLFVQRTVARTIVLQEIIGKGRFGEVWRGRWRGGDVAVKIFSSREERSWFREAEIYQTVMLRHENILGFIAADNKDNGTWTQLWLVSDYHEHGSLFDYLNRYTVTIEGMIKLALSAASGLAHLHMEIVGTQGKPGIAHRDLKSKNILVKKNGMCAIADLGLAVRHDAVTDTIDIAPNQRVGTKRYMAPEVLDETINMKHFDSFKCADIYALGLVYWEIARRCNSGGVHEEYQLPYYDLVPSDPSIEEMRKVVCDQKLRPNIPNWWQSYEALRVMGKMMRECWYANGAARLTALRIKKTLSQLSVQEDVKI

MAP3K9 (human) = MAP3K9 (human) (UniProt P80192)
PRKCG (human) = PRKCG (human) (UniProt P05129)
DAPK1 (human) = DAPK1 (human) (UniProt P53355)
Sequence of DAPK1 (human) (P53355 whole entry, looked up): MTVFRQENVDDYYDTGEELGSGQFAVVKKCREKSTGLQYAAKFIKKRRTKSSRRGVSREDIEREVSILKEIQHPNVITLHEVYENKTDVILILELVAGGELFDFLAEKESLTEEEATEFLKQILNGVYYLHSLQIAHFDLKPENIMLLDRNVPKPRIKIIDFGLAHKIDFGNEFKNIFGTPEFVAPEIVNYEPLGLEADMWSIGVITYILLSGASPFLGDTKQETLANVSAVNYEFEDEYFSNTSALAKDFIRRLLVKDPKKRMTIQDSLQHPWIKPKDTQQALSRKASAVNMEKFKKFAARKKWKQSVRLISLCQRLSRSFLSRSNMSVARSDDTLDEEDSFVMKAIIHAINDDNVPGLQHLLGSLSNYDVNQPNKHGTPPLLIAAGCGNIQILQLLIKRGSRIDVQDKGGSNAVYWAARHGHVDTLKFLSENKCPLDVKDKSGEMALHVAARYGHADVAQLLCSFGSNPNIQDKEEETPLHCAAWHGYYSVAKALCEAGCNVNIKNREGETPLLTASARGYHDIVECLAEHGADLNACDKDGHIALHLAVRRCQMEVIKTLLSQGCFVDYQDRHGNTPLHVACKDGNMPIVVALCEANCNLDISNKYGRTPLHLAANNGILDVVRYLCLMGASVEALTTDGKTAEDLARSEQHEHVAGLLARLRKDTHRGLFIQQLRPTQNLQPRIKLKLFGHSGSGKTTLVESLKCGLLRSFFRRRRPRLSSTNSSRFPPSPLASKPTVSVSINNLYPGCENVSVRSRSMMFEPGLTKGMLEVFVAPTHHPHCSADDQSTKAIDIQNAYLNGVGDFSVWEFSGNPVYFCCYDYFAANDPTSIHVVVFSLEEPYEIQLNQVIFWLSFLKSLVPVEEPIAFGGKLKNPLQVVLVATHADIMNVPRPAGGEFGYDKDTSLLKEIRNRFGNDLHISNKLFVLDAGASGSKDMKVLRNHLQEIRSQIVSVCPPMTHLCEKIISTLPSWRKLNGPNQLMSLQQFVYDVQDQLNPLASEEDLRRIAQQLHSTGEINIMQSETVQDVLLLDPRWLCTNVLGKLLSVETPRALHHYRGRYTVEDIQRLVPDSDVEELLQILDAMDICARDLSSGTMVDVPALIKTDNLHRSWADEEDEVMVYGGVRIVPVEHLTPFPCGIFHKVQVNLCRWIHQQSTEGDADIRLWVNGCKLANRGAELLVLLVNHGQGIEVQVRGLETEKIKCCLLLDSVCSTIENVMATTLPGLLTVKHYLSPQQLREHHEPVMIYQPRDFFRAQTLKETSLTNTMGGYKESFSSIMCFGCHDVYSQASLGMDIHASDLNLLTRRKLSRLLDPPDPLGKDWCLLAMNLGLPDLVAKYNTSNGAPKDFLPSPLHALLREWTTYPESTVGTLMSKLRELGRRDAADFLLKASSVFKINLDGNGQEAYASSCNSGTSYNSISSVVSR

MAP3K8 (human) = MAP3K8 (human) (UniProt P41279)
SRPK3 (human) = SRPK3 (human) (UniProt Q9UPE1)
Sequence of SRPK3 (human) (Q9UPE1 whole entry, looked up): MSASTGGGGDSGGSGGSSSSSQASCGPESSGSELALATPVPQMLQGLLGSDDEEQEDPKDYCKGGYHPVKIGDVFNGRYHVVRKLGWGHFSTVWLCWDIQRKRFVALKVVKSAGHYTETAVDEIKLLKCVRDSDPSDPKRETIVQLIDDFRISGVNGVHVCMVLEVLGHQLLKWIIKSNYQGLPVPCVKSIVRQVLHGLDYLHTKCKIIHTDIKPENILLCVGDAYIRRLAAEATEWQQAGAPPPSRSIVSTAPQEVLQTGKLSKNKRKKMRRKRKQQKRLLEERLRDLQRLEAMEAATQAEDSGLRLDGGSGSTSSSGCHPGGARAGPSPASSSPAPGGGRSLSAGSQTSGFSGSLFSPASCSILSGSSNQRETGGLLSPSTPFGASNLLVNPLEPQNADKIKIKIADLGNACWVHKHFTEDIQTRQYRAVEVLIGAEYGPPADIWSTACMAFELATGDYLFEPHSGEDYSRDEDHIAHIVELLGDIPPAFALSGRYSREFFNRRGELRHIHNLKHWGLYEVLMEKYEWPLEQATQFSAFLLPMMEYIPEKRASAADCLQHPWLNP

TSSK1B (human) = TSSK1B (human) (UniProt Q9BXA7)
CAMK1D (human) = CAMK1D (human) (UniProt Q8IU85)
ULK1 (human) = ULK1 (human) (UniProt O75385)
FLT3 (human) = FLT3 (human) (UniProt P36888)

Question: Which residual activity (MAP3K5 (human)) does the source give for `O=c1c(-c2ccc(F)cc2)c(-c2ccncc2)[nH]n1-c1ccc(Cl)cc1` here?
Answer: 115%

Question: What about the residual activity (JAK3 JH1 JH2 (human)) of the same molecule?
Answer: 106%

Question: And the residual activity (CDK9 CCNK (human))?
Answer: 93.4%

Question: What about the residual activity (HCK (human)) of the same molecule?
Answer: 91.1%

Question: And the residual activity (TXK (human))?
Answer: 94.4%

Question: What about the residual activity (MARK3 (human)) of the same molecule?
Answer: 87.2%

Question: What about the residual activity (FYN (human)) of the same molecule?
Answer: 94.8%

Question: What about the residual activity (TNK2 (human)) of the same molecule?
Answer: 91.2%

Question: And the residual activity (IKBKE (human))?
Answer: 98.3%

Question: What about the residual activity (PAK1 (human)) of the same molecule?
Answer: 92.4%

Question: And the residual activity (STK33 (human))?
Answer: 101%

Question: What about the residual activity (RPS6KA2 KD1 KD2 (human)) of the same molecule?
Answer: 91.8%

Question: What about the residual activity (PBK (human)) of the same molecule?
Answer: 87.7%

Question: And the residual activity (PRKG2 (human))?
Answer: 110%

Question: What about the residual activity (PLK2 (human)) of the same molecule?
Answer: 92.5%

Question: And the residual activity (MAPKAPK2 (human))?
Answer: 98.5%

Question: And the residual activity (TGFBR1 (human))?
Answer: 101%

Question: What about the residual activity (STK11 (human)) of the same molecule?
Answer: 98.8%

Question: What about the residual activity (CDK9 CCNT1 (human)) of the same molecule?
Answer: 101%

Question: What about the residual activity (PRKCE (human)) of the same molecule?
Answer: 96.7%

Question: And the residual activity (AXL (human))?
Answer: 113%

Question: And the residual activity (CDK5 CDK5R1 p35 (human))?
Answer: 104%

Question: And the residual activity (CSNK1G1 (human))?
Answer: 83.4%

Question: And the residual activity (TEK (human))?
Answer: 94.4%

Question: And the residual activity (INSR (human))?
Answer: 110%

Question: What about the residual activity (IGF1R (human)) of the same molecule?
Answer: 92.8%

Question: What about the residual activity (PAK3 (human)) of the same molecule?
Answer: 98.3%

Question: What about the residual activity (SRPK2 (human)) of the same molecule?
Answer: 94.4%

Question: What about the residual activity (NEK7 (human)) of the same molecule?
Answer: 90.1%

Question: What about the residual activity (AURKB (human)) of the same molecule?
Answer: 95.1%

Question: What about the residual activity (CLK1 (human)) of the same molecule?
Answer: 97%

Question: And the residual activity (MAP4K5 (human))?
Answer: 83.1%

Question: What about the residual activity (ACVR1B (human)) of the same molecule?
Answer: 123%

Question: What about the residual activity (MAP3K9 (human)) of the same molecule?
Answer: 103%

Question: And the residual activity (PRKCG (human))?
Answer: 101%

Question: And the residual activity (DAPK1 (human))?
Answer: 84.5%

Question: What about the residual activity (MAP3K8 (human)) of the same molecule?
Answer: 87.1%

Question: And the residual activity (SRPK3 (human))?
Answer: 92.2%

Question: What about the residual activity (TSSK1B (human)) of the same molecule?
Answer: 76.2%

Question: And the residual activity (CAMK1D (human))?
Answer: 72.2%

Question: What about the residual activity (ULK1 (human)) of the same molecule?
Answer: 103%

Question: And the residual activity (FLT3 (human))?
Answer: 92.8%

Question: What does the source list for `Cn1cc(/C=C2\C(=O)Nc3ccc(S(N)(=O)=O)cc32)c2ccccc21`?
Answer: residual activity (MAP3K5 (human)): 53.2%; residual activity (JAK3 JH1 JH2 (human)): 43.7%; residual activity (CDK9 CCNK (human)): 86.8%; residual activity (HCK (human)): 50%; residual activity (TXK (human)): 51.3%; residual activity (MARK3 (human)): 57.2%; residual activity (FYN (human)): 45.7%; residual activity (TNK2 (human)): 72.3%; residual activity (IKBKE (human)): 21.9%; residual activity (PAK1 (human)): 90.8%; residual activity (STK33 (human)): 46.3%; residual activity (RPS6KA2 KD1 KD2 (human)): 9.26%; residual activity (PBK (human)): 99.6%; residual activity (PRKG2 (human)): 85%; residual activity (PLK2 (human)): 104%; residual activity (MAPKAPK2 (human)): 101%; residual activity (TGFBR1 (human)): 97.8%; residual activity (STK11 (human)): 68.2%; residual activity (CDK9 CCNT1 (human)): 65%; residual activity (PRKCE (human)): 77.3%; residual activity (AXL (human)): 49.2%; residual activity (CDK5 CDK5R1 p35 (human)): 55.8%; residual activity (CSNK1G1 (human)): 88.3%; residual activity (TEK (human)): 95.8%; residual activity (INSR (human)): 87.4%; residual activity (IGF1R (human)): 87.9%; residual activity (PAK3 (human)): 93.8%; residual activity (SRPK2 (human)): 51.4%; residual activity (NEK7 (human)): 101%; residual activity (AURKB (human)): 10.5%; residual activity (CLK1 (human)): 88.3%; residual activity (MAP4K5 (human)): 13.4%; residual activity (ACVR1B (human)): 98.4%; residual activity (MAP3K9 (human)): 28.1%; residual activity (PRKCG (human)): 106%; residual activity (DAPK1 (human)): 98.9%; residual activity (MAP3K8 (human)): 96.8%; residual activity (SRPK3 (human)): 88.5%; residual activity (TSSK1B (human)): 17%; residual activity (CAMK1D (human)): 69.6%; residual activity (ULK1 (human)): 27.5%; residual activity (FLT3 (human)): 1.56%
